Data reported in patent publication US8815872B2, “Macrocyclics pyrimidines as aurora kinase inhibitors” (Merck Patent GmbH, priority 2008, dated 2014).

Experiments:
[1] = target: T1, IRAK4(h) (Homo sapiens, UniProt Q9NWZ3); assay: Other kinases, single-concentration inhibition (Table 3); type: biochemical
T1 construct: purchased Caliper Life Sciences
T1 sequence (Q9NWZ3 1-460): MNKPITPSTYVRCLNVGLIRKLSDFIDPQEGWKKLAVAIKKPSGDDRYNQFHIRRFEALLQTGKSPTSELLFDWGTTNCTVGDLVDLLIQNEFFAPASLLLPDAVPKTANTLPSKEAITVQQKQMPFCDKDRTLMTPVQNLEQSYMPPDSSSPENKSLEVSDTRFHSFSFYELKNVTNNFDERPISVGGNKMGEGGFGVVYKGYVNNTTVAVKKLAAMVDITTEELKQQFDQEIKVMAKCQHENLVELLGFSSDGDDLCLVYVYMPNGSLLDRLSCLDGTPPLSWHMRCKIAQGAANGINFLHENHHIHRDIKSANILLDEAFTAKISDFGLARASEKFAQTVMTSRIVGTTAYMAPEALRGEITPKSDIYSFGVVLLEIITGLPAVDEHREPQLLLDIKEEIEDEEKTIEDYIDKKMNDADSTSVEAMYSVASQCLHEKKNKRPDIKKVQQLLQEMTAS
Procedure, shortened: (§1)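 The screen used frozen pre-plated kinases, each paired with its own fluorescent peptide substrate and ATP concentration. Compound was tested at a single concentration over a 90 min reaction at 25 °C. Phosphorylated product was quantified by capillary electrophoretic mobility shift.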

[2] = target: T2, Pyk2(h) (Homo sapiens, UniProt Q14289); assay: as above; type: biochemical
T2 construct: purchased Caliper Life Sciences
Procedure, shortened: as §1

[3] = target: T3, ROCK-I(h) (Homo sapiens, UniProt Q13464); assay: as above; type: biochemical
T3 construct: purchased Caliper Life Sciences
Procedure, shortened: as §1

[4] = tested on: AMPK(r); assay: as above; type: biochemical, rat
Experimental: (§2) The Aurora and other kinase assays described here were performed on two Caliper Life Sciences systems, the LC3000 and the Desktop Profiler. These provide data on enzyme activity via measurement of the relative amounts of phosphorylated or unphosphorylated fluorescently labelled substrate peptide at the end of an enzymatic reaction. These different states of peptide are resolved by applying a potential difference across the sample. The presence of a charged phosphate group on the product (as opposed to the substrate) causes a different peptide mobility between the two peptides. This is visualized by excitation of a fluorescent label on the substrate and product peptides and represented as peaks within the analysis software.
(§3) The Desktop Profiler utilizes the same principal as the LC 3000 for calculating percentage conversion of a substrate to product. Caliper Life Sciences provided proprietary flash frozen pre-made 384 well plates containing selected kinases. Each column in the 384 well plate contained a particular selected kinase. A second plate, the ‘substrate plate’ contained a mix of fluorescently labeled peptide substrate and ATP. These were arranged in columns so that transfer for substrate plate to enzyme plate provided the correct enzyme with the correct substrate/ATP concentration.
(§4) Compounds were added to a thawed enzyme plate in the desired format, in single concentrations. Reactions were initiated by transfer of the ubstrate/ATP mix from the substrate plate. The enzyme plate was incubated for 90 mins at 25 °C. The reaction was stopped by addition of […] of Stop Buffer (100 mM HEPES pH 7.5, 0.015% Brij-35, 10 mM EDTA (Sigma, E7889)).
(§5) Plates were read in a manner identical to that of the LC3000, and the ratio between substrate and product peaks provided the activity of the enzyme in that well. This was best represented by a plate heat map which colors each well by percent inhibition as compared to positive and negative controls (no inhibitors and no ATP respectively).

[5] = target: T4, BRSK2 (Homo sapiens, UniProt Q8IWQ3); assay: Other kinases, inhibition at 1 μM (Table 3); type: biochemical
T4 construct: purchased Caliper Life Sciences
Experimental: as §2, §3, §4, §5

[6] = target: T5, CAMKI (Homo sapiens, UniProt Q14012); assay: Other kinases, inhibition at 1 μM (Table 3); type: biochemical
T5 construct: purchased Caliper Life Sciences
Experimental: as §2, §3, §4, §5

[7] = target: T6, CAMKKb (Homo sapiens, UniProt Q96RR4); assay: Other kinases, inhibition at 1 μM (Table 3); type: biochemical
T6 construct: purchased Caliper Life Sciences
Experimental: as §2, §3, §4, §5

[8] = target: T7, DYRK1-alpha (Homo sapiens, UniProt Q13627); assay: Other kinases, inhibition at 1 μM (Table 3); type: biochemical
T7 construct: purchased Caliper Life Sciences
Experimental: as §2, §3, §4, §5

[9] = target: T8, EF2K (Homo sapiens, UniProt O00418); assay: Other kinases, inhibition at 1 μM (Table 3); type: biochemical
T8 construct: purchased Caliper Life Sciences
Experimental: as §2, §3, §4, §5

[10] = target: T9, EphA2 (Homo sapiens, UniProt P29317); assay: Other kinases, inhibition at 1 μM (Table 3); type: biochemical
T9 construct: purchased Caliper Life Sciences
Experimental: as §2, §3, §4, §5

[11] = target: T10, FGFR1 (Homo sapiens, UniProt P11362); assay: Other kinases, inhibition at 1 μM (Table 3); type: biochemical
T10 construct: purchased Caliper Life Sciences
Experimental: as §2, §3, §4, §5

[12] = target: T11, HIPK2 (Homo sapiens, UniProt Q9H2X6); assay: Other kinases, inhibition at 1 μM (Table 3); type: biochemical
T11 construct: purchased Caliper Life Sciences
Experimental: as §2, §3, §4, §5

[13] = target: T12, IRR (Homo sapiens, UniProt P14616); assay: Other kinases, inhibition at 1 μM (Table 3); type: biochemical
T12 construct: purchased Caliper Life Sciences
Experimental: as §2, §3, §4, §5

[14] = target: T13, JNK1-alpha-1 (Homo sapiens, UniProt P45983); assay: Other kinases, inhibition at 1 μM (Table 3); type: biochemical
T13 construct: purchased Caliper Life Sciences
Experimental: as §2, §3, §4, §5

[15] = target: T14, MAPK2 (Homo sapiens, UniProt P28482); assay: Other kinases, inhibition at 1 μM (Table 3); type: biochemical
T14 construct: purchased Caliper Life Sciences
Experimental: as §2, §3, §4, §5

[16] = target: T15, MAPKAP-K1-beta (Homo sapiens, UniProt P51812); assay: Other kinases, inhibition at 1 μM (Table 3); type: biochemical
T15 construct: purchased Caliper Life Sciences
Experimental: as §2, §3, §4, §5

[17] = target: T16, MAPKAP-K2 (Homo sapiens, UniProt P49137); assay: Other kinases, inhibition at 1 μM (Table 3); type: biochemical
T16 construct: purchased Caliper Life Sciences
Experimental: as §2, §3, §4, §5

[18] = target: T17, MNK-1 (Homo sapiens, UniProt Q9BUB5); assay: Other kinases, inhibition at 1 μM (Table 3); type: biochemical
T17 construct: purchased Caliper Life Sciences
Experimental: as §2, §3, §4, §5

[19] = target: T18, MNK-2-alpha (Homo sapiens, UniProt Q9HBH9); assay: Other kinases, inhibition at 1 μM (Table 3); type: biochemical
T18 construct: purchased Caliper Life Sciences
Experimental: as §2, §3, §4, §5

[20] = target: T19, MST4 (Homo sapiens, UniProt Q9P289); assay: Other kinases, inhibition at 1 μM (Table 3); type: biochemical
T19 construct: purchased Caliper Life Sciences
Experimental: as §2, §3, §4, §5

[21] = target: T20, PAK4 (Homo sapiens, UniProt O96013); assay: Other kinases, inhibition at 1 μM (Table 3); type: biochemical
T20 construct: purchased Caliper Life Sciences
Experimental: as §2, §3, §4, §5

[22] = target: T21, PAK5 (Homo sapiens, UniProt Q9P286); assay: Other kinases, inhibition at 1 μM (Table 3); type: biochemical
T21 construct: purchased Caliper Life Sciences
Experimental: as §2, §3, §4, §5

[23] = target: T22, PAK6 (Homo sapiens, UniProt Q9NQU5); assay: Other kinases, inhibition at 1 μM (Table 3); type: biochemical
T22 construct: purchased Caliper Life Sciences
Experimental: as §2, §3, §4, §5

[24] = target: T23, PKA (Homo sapiens, UniProt P17612); assay: Other kinases, inhibition at 1 μM (Table 3); type: biochemical
T23 construct: purchased Caliper Life Sciences
Experimental: as §2, §3, §4, §5

[25] = target: T24, PKB-beta (Homo sapiens, UniProt P31751); assay: Other kinases, inhibition at 1 μM (Table 3); type: biochemical
T24 construct: purchased Caliper Life Sciences
Experimental: as §2, §3, §4, §5

[26] = target: T25, PKC-zeta (Homo sapiens, UniProt Q05513); assay: Other kinases, inhibition at 1 μM (Table 3); type: biochemical
T25 construct: purchased Caliper Life Sciences
Experimental: as §2, §3, §4, §5

[27] = target: T26, SRPK1 (Homo sapiens, UniProt Q96SB4); assay: Other kinases, inhibition at 1 μM (Table 3); type: biochemical
T26 construct: purchased Caliper Life Sciences
Experimental: as §2, §3, §4, §5

[28] = tested on: VEGFR; assay: Other kinases, inhibition at 1 μM (Table 3); type: biochemical
Experimental: as §2, §3, §4, §5

T2 sequence (Q14289 whole entry): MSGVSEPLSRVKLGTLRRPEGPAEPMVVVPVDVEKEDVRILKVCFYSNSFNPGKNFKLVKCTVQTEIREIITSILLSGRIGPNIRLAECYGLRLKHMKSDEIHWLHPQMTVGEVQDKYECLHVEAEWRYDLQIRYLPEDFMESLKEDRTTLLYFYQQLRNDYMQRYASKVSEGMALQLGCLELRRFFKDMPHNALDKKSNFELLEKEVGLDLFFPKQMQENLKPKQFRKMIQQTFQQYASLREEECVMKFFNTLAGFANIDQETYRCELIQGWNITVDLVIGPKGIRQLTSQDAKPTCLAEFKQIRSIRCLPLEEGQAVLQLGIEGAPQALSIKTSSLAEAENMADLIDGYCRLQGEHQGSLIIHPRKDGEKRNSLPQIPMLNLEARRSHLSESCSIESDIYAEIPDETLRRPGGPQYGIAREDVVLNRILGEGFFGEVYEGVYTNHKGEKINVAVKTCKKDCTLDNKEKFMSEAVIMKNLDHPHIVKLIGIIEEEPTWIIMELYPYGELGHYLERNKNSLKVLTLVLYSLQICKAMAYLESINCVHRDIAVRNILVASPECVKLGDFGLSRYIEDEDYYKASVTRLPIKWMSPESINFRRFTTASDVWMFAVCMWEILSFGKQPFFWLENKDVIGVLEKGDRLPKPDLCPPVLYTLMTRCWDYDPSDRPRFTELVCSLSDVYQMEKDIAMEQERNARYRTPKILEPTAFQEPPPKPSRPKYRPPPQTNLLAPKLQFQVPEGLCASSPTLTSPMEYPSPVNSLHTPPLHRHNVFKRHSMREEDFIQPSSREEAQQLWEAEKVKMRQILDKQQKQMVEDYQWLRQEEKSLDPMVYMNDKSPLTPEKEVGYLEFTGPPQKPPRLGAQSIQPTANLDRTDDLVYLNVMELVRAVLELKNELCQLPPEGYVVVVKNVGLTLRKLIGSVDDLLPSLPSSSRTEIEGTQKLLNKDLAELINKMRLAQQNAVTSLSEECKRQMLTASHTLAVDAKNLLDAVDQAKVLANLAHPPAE
T3 sequence (Q13464 whole entry): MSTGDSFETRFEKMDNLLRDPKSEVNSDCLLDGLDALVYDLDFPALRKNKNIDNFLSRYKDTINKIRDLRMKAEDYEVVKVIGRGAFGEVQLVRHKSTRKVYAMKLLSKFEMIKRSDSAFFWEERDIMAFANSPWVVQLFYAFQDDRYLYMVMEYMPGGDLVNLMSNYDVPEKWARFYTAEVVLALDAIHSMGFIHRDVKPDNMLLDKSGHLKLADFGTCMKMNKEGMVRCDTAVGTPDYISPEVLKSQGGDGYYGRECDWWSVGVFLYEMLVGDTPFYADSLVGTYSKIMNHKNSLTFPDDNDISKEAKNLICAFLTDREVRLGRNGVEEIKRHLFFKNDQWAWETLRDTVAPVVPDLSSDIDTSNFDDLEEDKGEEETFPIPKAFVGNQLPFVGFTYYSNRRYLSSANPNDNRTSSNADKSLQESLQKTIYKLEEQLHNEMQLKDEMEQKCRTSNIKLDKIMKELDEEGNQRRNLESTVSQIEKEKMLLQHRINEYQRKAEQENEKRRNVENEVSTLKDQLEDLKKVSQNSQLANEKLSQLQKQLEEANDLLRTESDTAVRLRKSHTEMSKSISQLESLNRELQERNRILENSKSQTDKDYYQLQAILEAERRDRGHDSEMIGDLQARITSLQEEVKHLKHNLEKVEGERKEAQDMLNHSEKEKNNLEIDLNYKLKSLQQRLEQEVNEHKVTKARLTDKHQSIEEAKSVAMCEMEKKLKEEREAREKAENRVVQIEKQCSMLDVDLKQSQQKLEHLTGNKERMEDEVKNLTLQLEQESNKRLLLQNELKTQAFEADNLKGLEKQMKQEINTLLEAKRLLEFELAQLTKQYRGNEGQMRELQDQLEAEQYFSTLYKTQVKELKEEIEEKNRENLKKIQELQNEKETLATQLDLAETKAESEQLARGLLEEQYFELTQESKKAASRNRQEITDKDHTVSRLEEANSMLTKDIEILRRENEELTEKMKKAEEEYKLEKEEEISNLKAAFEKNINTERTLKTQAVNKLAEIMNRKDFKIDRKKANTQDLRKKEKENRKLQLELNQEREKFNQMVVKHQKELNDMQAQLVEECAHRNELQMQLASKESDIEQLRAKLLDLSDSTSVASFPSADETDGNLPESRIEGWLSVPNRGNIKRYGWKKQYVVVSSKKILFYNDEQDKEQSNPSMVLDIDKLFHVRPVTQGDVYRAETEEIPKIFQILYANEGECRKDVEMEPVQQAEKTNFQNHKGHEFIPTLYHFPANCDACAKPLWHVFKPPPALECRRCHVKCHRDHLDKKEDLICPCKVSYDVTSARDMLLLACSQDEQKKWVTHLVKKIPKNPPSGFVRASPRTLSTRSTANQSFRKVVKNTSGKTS
T14 sequence (P28482 whole entry): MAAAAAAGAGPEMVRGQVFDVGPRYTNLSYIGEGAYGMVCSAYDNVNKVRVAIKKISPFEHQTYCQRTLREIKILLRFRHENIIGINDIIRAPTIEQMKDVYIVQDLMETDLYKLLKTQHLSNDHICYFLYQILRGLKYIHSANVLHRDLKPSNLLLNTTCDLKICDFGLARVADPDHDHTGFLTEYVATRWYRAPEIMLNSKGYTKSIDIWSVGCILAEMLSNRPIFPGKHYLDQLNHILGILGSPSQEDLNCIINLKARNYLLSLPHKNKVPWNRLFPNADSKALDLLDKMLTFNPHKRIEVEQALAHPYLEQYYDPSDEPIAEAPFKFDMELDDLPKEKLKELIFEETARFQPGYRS
T11 sequence (Q9H2X6 whole entry, species assumed): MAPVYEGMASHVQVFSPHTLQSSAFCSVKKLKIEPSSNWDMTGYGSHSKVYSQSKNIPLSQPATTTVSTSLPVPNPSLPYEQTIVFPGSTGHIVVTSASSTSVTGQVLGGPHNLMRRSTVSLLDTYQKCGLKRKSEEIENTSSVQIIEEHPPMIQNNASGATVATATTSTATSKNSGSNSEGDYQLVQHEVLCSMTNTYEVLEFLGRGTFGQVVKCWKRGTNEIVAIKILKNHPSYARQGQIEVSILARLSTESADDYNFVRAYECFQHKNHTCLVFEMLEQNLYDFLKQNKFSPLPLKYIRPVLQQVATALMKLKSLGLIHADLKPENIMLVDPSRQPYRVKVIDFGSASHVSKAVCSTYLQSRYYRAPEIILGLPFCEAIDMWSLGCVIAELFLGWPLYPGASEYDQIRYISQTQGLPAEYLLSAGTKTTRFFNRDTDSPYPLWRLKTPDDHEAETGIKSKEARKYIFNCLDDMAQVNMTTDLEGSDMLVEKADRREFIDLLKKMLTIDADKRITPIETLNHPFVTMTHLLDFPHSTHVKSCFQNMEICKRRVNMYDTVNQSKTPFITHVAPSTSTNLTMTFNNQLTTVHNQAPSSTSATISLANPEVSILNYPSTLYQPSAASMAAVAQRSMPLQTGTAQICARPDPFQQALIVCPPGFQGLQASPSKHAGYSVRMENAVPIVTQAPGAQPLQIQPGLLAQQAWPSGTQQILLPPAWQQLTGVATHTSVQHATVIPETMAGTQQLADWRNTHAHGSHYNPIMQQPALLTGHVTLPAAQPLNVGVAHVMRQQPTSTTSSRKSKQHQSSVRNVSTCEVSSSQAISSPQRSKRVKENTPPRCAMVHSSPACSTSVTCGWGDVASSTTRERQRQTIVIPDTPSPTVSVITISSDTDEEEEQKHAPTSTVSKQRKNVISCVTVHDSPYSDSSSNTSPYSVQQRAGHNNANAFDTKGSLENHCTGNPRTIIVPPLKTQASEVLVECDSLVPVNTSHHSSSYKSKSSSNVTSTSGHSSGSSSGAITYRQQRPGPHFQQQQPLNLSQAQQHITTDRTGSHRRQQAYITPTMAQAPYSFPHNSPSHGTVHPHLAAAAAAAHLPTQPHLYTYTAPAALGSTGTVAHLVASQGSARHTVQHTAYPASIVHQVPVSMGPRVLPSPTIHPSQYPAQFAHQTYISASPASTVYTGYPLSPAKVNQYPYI
T10 sequence (P11362 22-822, species assumed): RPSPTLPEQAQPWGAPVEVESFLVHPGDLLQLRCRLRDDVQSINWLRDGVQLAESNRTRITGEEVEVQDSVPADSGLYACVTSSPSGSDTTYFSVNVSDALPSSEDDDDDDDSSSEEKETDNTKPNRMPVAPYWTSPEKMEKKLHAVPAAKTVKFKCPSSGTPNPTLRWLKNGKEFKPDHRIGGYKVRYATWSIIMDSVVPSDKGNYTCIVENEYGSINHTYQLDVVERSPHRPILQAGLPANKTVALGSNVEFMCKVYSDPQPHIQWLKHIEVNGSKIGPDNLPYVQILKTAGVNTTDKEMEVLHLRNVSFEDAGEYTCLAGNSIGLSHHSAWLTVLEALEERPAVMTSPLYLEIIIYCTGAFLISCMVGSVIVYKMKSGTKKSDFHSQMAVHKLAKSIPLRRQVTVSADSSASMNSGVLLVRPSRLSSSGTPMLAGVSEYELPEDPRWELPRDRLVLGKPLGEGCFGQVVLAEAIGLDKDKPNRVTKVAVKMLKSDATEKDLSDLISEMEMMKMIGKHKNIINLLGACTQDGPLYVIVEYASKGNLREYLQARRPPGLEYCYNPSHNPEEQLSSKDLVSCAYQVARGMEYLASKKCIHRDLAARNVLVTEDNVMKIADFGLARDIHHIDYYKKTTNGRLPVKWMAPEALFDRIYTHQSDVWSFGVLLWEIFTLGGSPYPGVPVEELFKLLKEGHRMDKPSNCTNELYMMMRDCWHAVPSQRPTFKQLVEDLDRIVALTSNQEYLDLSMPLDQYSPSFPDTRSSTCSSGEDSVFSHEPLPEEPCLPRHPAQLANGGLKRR
T5 sequence (Q14012 whole entry, species assumed): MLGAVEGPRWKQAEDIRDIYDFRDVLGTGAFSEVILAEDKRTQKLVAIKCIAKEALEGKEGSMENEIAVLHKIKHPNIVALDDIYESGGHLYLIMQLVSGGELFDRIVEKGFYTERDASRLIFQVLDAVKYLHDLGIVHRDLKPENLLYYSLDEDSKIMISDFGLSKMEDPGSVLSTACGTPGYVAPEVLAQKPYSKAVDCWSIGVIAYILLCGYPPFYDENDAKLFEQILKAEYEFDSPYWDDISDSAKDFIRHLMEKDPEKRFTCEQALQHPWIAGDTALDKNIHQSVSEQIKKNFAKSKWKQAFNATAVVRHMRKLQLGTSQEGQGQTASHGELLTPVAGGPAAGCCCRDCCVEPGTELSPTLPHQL

## O=C(O)[C@H]1[C@H]2C[C@H]3[C@H]1Nc1nc(ncc1F)Nc1cccc(c1)OCCS[C@@H]3C2 [Example 21]
[1]; 10 μM
  % inhibition IRAK4(h): 31%
[2]; 10 μM
  % inhibition Pyk2(h): 11%
[3]; 10 μM
  % inhibition ROCK-I(h): 98%
[4]; 10 μM
  % inhibition AMPK(r): 57%

## CC[C@@H]1C[C@@H]2/C=C\COc3cccc(c3)Nc3ncc(F)c(n3)N[C@H]2[C@H]1C(N)=O (single isomer, unassigned) [Example 6]
[1]; 1 μM
  % inhibition IRAK4(h): 52%
[2]; 1 μM
  % inhibition Pyk2(h): 110%
[3]; 1 μM
  % inhibition ROCK-I(h): 99%
[4]; 1 μM
  % inhibition AMPK(r): 51%

## NC(=O)[C@H]1[C@H]2C[C@H]3[C@H]1Nc1nc(ncc1F)Nc1cccc(c1)NC(=O)CS[C@@H]3C2 [Example 27]
[1]; 1 μM
  % inhibition IRAK4(h): 12%
[2]; 1 μM
  % inhibition Pyk2(h): 34%
[3]; 1 μM
  % inhibition ROCK-I(h): 104%
[4]; 1 μM
  % inhibition AMPK(r): 71%

## C=C[C@@H]1C[C@@H]2/C=C/COc3cccc(c3)Nc3ncc(F)c(n3)N[C@H]2[C@H]1C(N)=O (single isomer, unassigned) [Example 3]
[1]; 1 μM
  % inhibition IRAK4(h): 82%
[2]; 1 μM
  % inhibition Pyk2(h): 94%
[3]; 1 μM
  % inhibition ROCK-I(h): 101%
[4]; 1 μM
  % inhibition AMPK(r): 92%

## Fc1cnc2nc1NC1CCCC(C1)OC/C=C\COc1cccc(c1)N2 (single isomer, unassigned) [Example 33, (16Z)-6-fluoro-14,19-dioxa-2,4,8,26-tetraazatetracyclo[18.3.1.1˜3,7˜0.1˜9,13˜]hexacosa-1(24),3(26),4,6,16,20,22-heptaene]
[5]
  inhibition at 1 µM: 81%
[6]
  % inhibition CAMKI: 93%
[7]
  % inhibition CAMKKb: 81%
[8]
  inhibition at 1 µM: 86%
[9]
  inhibition at 1 µM: 78%
[10]
  inhibition at 1 µM: 81%
[11]
  inhibition at 1 µM: 74%
[12]
  inhibition at 1 µM: 68%
[13]
  inhibition at 1 µM: 69%
[14]
  inhibition at 1 µM: 75%
[15]
  % inhibition MAPK2: 79%
[16]
  % inhibition MAPKAP-K1-beta: 68%
[17]
  % inhibition MAPKAP-K2: 100%
[18]
  % inhibition MNK-1: 95%
[19]
  % inhibition MNK-2-alpha: 81%
[20]
  % inhibition MST4: 89%
[21]
  % inhibition PAK4: 81%
[22]
  % inhibition PAK5: 92%
[23]
  % inhibition PAK6: 90%
[24]
  % inhibition PKA: 82%
[25]
  % inhibition PKB-beta: 85%
[26]
  % inhibition PKC-zeta: 104%
[27]
  inhibition at 1 µM: 83%
[28]
  % inhibition VEGFR: 49%

## N#Cc1ccc2cc1NC(=O)CS[C@@H]1C[C@@H]3C[C@H]1[C@@H](Nc1nc(ncc1F)N2)[C@H]3C(N)=O [Example 26]
[1]; 1 μM
  % inhibition IRAK4(h): 43%
[2]; 1 μM
  % inhibition Pyk2(h): 99%
[3]; 1 μM
  % inhibition ROCK-I(h): 2%
[4]; 1 μM
  % inhibition AMPK(r): 79%

## NC(=O)[C@H]1[C@H]2C[C@H]3[C@H]1Nc1nc(ncc1F)Nc1cccc(c1)C(=O)CS[C@@H]3C2 [Example 11]
[1]; 1 μM
  % inhibition IRAK4(h): 90%
[2]; 1 μM
  % inhibition Pyk2(h): 93%
[3]; 1 μM
  % inhibition ROCK-I(h): −2%
[4]; 1 μM
  % inhibition AMPK(r): 97%

## CN1CCN(c2ccc3cc2NC(=O)CS[C@@H]2C[C@@H]4C[C@H]2[C@@H](Nc2nc(ncc2F)N3)[C@H]4C(N)=O)CC1 [Example 24]
[1]; 1 μM
  % inhibition IRAK4(h): 19%
[2]; 1 μM
  % inhibition Pyk2(h): 31%
[3]; 1 μM
  % inhibition ROCK-I(h): 93%
[4]; 1 μM
  % inhibition AMPK(r): 68%

## CC[C@@H]1C[C@@H]2CCCOc3cccc(c3)Nc3ncc(F)c(n3)N[C@H]2[C@H]1C(N)=O (single isomer, unassigned) [Example 5]
[1]; 1 μM
  % inhibition IRAK4(h): 81%
[2]; 1 μM
  % inhibition Pyk2(h): 122%
[3]; 1 μM
  % inhibition ROCK-I(h): 106%
[4]; 1 μM
  % inhibition AMPK(r): 58%

## CN1CCN(c2ccc3cc2OCCS[C@@H]2C[C@@H]4C[C@H]2[C@@H](Nc2nc(ncc2F)N3)[C@H]4C(N)=O)CC1 [Example 22]
[1]; 1 μM
  % inhibition IRAK4(h): 52%
[2]; 1 μM
  % inhibition Pyk2(h): 27%
[3]; 1 μM
  % inhibition ROCK-I(h): 109%
[4]; 1 μM
  % inhibition AMPK(r): 65%

## NC(=O)[C@H]1[C@H]2C[C@H]3[C@H]1Nc1nc(ncc1F)Nc1cccc(c1)OCCS[C@@H]3C2 [Example 20]
[1]; 1 μM
  % inhibition IRAK4(h): 12%
[2]; 1 μM
  % inhibition Pyk2(h): 15%
[3]; 1 μM
  % inhibition ROCK-I(h): 96%
[4]; 1 μM
  % inhibition AMPK(r): 81%
